Assay results: PubChem BioAssay AID1241 (SRMLSC, 2008)

Assay: NF-kB promoter reporter activators, neuronal cells, dose response, cell-based, SH-SY5Y, luciferase (AID 1241)
Conditions: fold induction; call rule not given here

EC50, active:
COc1ccc(-c2ccc3ccccc3n2)cc1 651 nM
COC(=O)CSc1nc(-c2cccs2)ccc1C#N 5620 nM
O=C(/C=C/Nc1cccc(O)c1)c1ccccc1 2100 nM
O=C(NC(=S)Nc1ccc2c(c1)OCO2)c1ccccc1 5700 nM
Cc1ccc(-c2noc(-c3cccs3)n2)cc1 2290 nM
CC(=O)Nc1cccc(-c2csc(Nc3ccc(C)cn3)n2)c1 702 nM
Cc1ccc(C(=O)Nc2nc3c(s2)CCCC3)o1 1780 nM
Nc1cccc(-c2nc3ccccc3s2)c1 1410 nM
CC(C)Oc1cccc(C(=O)Nc2ccc(Br)cc2F)c1 2460 nM
COc1ccc(/C=N/Nc2nc3ccccc3o2)cc1O 2140 nM
Clc1cc(Cl)c(OCc2nc(-c3ccccn3)no2)cc1Cl 1850 nM
Cc1cc(C)n2cc(COc3ccc4ccccc4c3)nc2n1 1830 nM
Cc1ccc(-c2cc(-c3cccs3)[nH]n2)c(O)c1 13100 nM
CCCCc1ccc(-c2ccc(Br)cc2)nc1 16300 nM
Cc1csc(NC(=O)c2cc3c(s2)CCC3)n1 1050 nM
Cc1ccc2nc(NC(=O)c3ccc(Cl)s3)sc2c1 1060 nM
CC(=O)Nc1ccc(-c2cc3ccccc3o2)cc1 5560 nM
Cc1ccc(NC(=O)c2cc3ccccc3o2)cc1S(=O)(=O)N(C)C 2040 nM
Cc1ccccc1/C=C1\CCCc2ccccc2C1=O 24900 nM
Cc1sc(NC(=O)c2ccco2)nc1-c1ccccc1 2770 nM
CC1CCN(c2nc3ccc(C(=O)O)cc3s2)CC1 389 nM
CCSc1ccc(-c2ccc(C)cc2)nn1 690 nM
COc1ccc(N2C(=S)NC3N2C(=S)NC3(C)c2ccccc2)cc1 (centres undefined) 8370 nM
CC(C(=O)O)c1ccc(N2Cc3ccccc3C2=O)cc1 (centres undefined) 1520 nM
COc1cccc(-c2noc(-c3cccs3)n2)c1 2180 nM
O=C(Nc1nc2ccccc2s1)NC1CCCCC1 2420 nM
O=C(/C=C/Nc1ccccc1)c1ccccc1 < 59 nM
Cc1nc(-c2ccc(NC(=O)c3ccccc3)cc2)cs1 761 nM
O=C(Nc1ccc2c(c1)OCO2)c1ccc2c(c1)OCO2 1230 nM
Nc1nc(Nc2ccccc2)nc2ccccc12 1380 nM
Cc1nc(Nc2ccccc2)sc1-c1ccccc1 1450 nM
O=C1CC(c2ccco2)CC2=C1C1c3ccccc3C(=O)N1c1ccccc1N2 (centres undefined) 3070 nM
COc1ccc(-c2cn3cccc(C)c3n2)cc1F 22400 nM
Cc1ccccc1-c1cc(-c2ccccc2O)on1 9680 nM
Cc1cc2nc(-c3ccc(SCC(=O)Nc4ccc(S(=O)(=O)NC5CC5)cc4)nc3)[nH]c2cc1C 907 nM
O=C(Cc1nc(=O)c2ccccc2s1)Nc1ccccc1 220 nM
CC(C)c1ccc(OCc2nc(-c3ccccn3)no2)c(Br)c1 1030 nM
O=C(c1cnn(-c2ccc(Cl)cc2)c1)c1ccccc1O 1720 nM
COc1ccc2nc3oc(C(=O)N4CCCCC4)cc3cc2c1 5270 nM
c1ccc2sc(-c3ccc4c(c3)OCO4)nc2c1 868 nM
Fc1cccc(C2NN=C(c3ccccc3)S2)c1 (centres undefined) 9650 nM
Cc1noc(/C=C/Nc2ccc(F)cc2F)c1[N+](=O)[O-] 2360 nM
Cc1ccc(C(=O)Nc2ccc3nccnc3c2)cc1 1110 nM
c1ccc(Cn2ccc(-c3cnc(-c4ccccc4)s3)n2)cc1 2240 nM
Cc1ccsc1C(=O)N/N=C/c1ccc2c(c1)OCO2 1140 nM
COc1ccc(NC(=O)N2CCc3ccccc32)cc1 697 nM
Nc1ccc(Nc2nc(-c3cc4ccccc4oc3=O)cs2)cc1 2020 nM
Fc1ccccc1CSc1nc2ccccc2[nH]1 3190 nM
O=c1c(-c2ccc3c(c2)OCCO3)coc2cc(O)cc(O)c12 22700 nM
Clc1ccc(CSc2nc3ccncc3[nH]2)cc1 6940 nM
Cc1ccc(N/C=C/C(=O)c2cccs2)cc1C 270 nM
CN(c1ccccc1)c1ccc(/C=N/N2CCOCC2)cc1 6770 nM
COc1cc(SC)ccc1C(=O)Nc1ccc(C)cc1 3050 nM
c1ccc(Nc2nc(-c3cccs3)cs2)nc1 667 nM
O=C(Oc1c(CN2CCOCC2)cc(Cl)c2cccnc12)c1ccc(F)cc1 13100 nM
CC(=O)Oc1ccc(Cl)cc1/C=C/c1ccc2ccccc2n1 836 nM
CC(=Nc1ccccc1)c1sc2ccccc2c1O 6490 nM
CCCc1cc(C(=O)Nc2nccs2)cs1 2620 nM
N#C/C(=N\Nc1cccc(F)c1)C(=N)N1CCCCCC1 1640 nM
CCc1ccc(C(=O)COC(=O)c2n[nH]c3ccccc23)cc1 2540 nM
Cc1ccc(-c2noc(-c3ccccc3Br)n2)cc1 1830 nM
Cc1ccc(/C=C2\Sc3ccccc3C2=O)s1 5980 nM
COc1ccc(-c2csc(Nc3ccccc3)n2)cc1 2490 nM
COc1ccc(Nc2nc(-c3ccccc3)cs2)cc1 752 nM
CC(=O)CSc1nc2cc3c(cc2cc1C#N)OCCO3 104 nM
CN(C)c1ccc(C(=O)/C=C/c2ccco2)cc1 1960 nM
Cc1ccc(S(=O)(=O)/N=C(/NC(=S)Nc2ccccc2)c2ccccc2)cc1 23500 nM
Cc1ccc(C(=O)/C=C/Nc2cccc(O)c2)cc1 559 nM
O=C(Nc1ccc2c(c1)OCCO2)c1ccc2ccccc2n1 1440 nM
COc1ccc(-c2nnc(-c3ccc(N)cc3)o2)cc1 2120 nM
Cc1ccc(-c2cnc3c(Cl)c(C)nn3c2)cc1 11500 nM
O=C1C(C=Nc2ccc(F)cc2)=C(O)c2ccccc21 2410 nM
O=C(N/N=C/C(Br)=C/c1ccccc1)c1n[nH]c2c1CCC2 659 nM
Cc1cnc(NC(=O)Nc2ccc(Cl)cc2)s1 24000 nM
Cc1cnc(C(=O)Nc2ccc3c(c2)CCC3)cn1 2450 nM
O=C(Nc1ccc2c(c1)CCC2)c1ccccc1 1840 nM
COc1ccc(-c2cn3c4c(sc3n2)CCCC4)cc1 650 nM
CN=c1scc(C)n1/N=C/c1ccc2c(c1)OCO2 129 nM
N/C(=N\OC(=O)COc1ccc(Cl)cc1Cl)c1ccccn1 1190 nM
O=C(/C=C/c1ccccc1Cl)Nc1cccc(O)c1 1120 nM
O=C(/C=C/c1c[nH]c2ccccc12)c1ccccc1 5440 nM
Cc1ccsc1C(=O)OCc1csc(-c2ccccc2)n1 1540 nM
O=C(NC1CCCCCCC1)c1ccc2c(c1)OCO2 11000 nM
Cc1ccnc(NC(=O)/C=C/c2ccccc2Cl)c1 10400 nM
